Reference: BindingDB's records for doi:10.1021/acsmedchemlett.7b00157 (Novartis Institutes For Biomedical Research, 2017)

Experiments:
[1] = Antagonist activity at DP2 receptor in human whole assessed as inhibition of DK-PGD2-induced eosinophils shape change preincubated for 5 mins followed by DK-PGD2 addition measured after 5 mins by flow cytometry
[2] = biological target: T1, Prostaglandin D2 receptor 2 (Homo sapiens, UniProt Q9Y5Y4); experiment: Antagonist activity at DP2 receptor in human whole assessed as inhibition of DK-PGD2-induced eosinophils shape change preincubated for 5 mins followed by DK-PGD2 addition measured after 5 mins by flow cytometry
T1 sequence (Q9Y5Y4 whole entry): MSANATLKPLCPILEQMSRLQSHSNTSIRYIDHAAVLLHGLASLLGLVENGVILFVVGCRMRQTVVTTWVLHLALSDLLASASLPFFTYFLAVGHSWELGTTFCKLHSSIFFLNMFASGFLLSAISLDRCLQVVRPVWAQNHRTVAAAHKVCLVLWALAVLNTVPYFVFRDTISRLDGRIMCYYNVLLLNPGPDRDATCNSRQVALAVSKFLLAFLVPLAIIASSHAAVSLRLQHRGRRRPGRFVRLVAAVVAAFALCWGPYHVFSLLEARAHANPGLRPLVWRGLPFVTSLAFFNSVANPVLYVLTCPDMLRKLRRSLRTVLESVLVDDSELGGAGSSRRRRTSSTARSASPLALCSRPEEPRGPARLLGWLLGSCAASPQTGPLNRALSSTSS

| SMILES | IC50 [1] [nM] | IC50 [2] [nM] |
| --- | --- | --- |
| CCS(=O)(=O)c1ccc(Cn2c(C)c(CC(=O)O)c3cccnc32)c(C(F)(F)F)c1 | 4 | – |
| CCS(=O)(=O)c1ccc(Cn2c(C)c(CC(=O)O)c3cccnc32)c(Cl)c1 | – | 7 |
| Cc1c(CC(=O)O)c2cccnc2n1Cc1ccc(S(C)(=O)=O)c(C(F)(F)F)c1 | 11 | – |
| Cc1c(CC(=O)O)c2cccnc2n1Cc1ccc(C(F)(F)F)cc1C(F)(F)F | 214 | – |

The remaining lines, values ahead:

| IC50 [1] [nM] | IC50 [2] [nM] | SMILES |
| --- | --- | --- |
| 32 | – | Cc1cc(S(C)(=O)=O)ccc1Cn1c(C)c(CC(=O)O)c2cccnc21 |
| 47 | – | Cc1c(CC(=O)O)c2cccnc2n1Cc1ccc(S(C)(=O)=O)cc1Cl |
| 188 | – | Cc1c(CC(=O)O)c2ccccc2n1Cc1ccc(S(C)(=O)=O)cc1 |
